Values of other authors in patent publication US20130108599A1, “Herbal Vaginal Compositions” (priority 2011, published 2013).

Assays:
[1] = system: Candida albicans (KCTC 7270)
[2] = system: vaginal pathogens

| Compound | growth of C. albicans [1] | anti-microbial activity among the catechins [2] |
| --- | --- | --- |
| Cn1c(=O)c2c(ncn2C)n(C)c1=O [caffeine] | strongly inhibited | – |
| O=C(O[C@@H]1Cc2c(O)cc(O)cc2O[C@@H]1c1cc(O)c(O)c(O)c1)c1cc(O)c(O)c(O)c1 [epigallocatechin gallate] | – | strongest anti-microbial activity |
